# Several values for one entry are separate records, joined by “and”; a condition that tells them apart may be missing. Equal values may be shown once. Read-outs that look alike come from different tables or passages of the source.
# Legend:
# [1] = molecular target: T1, α1 homomeric glycine receptors (Rattus norvegicus, UniProt P07727); test: Co-activation of the current response to 10 μM glycine, whole-cell patch clamp, transfected HEK 293 cells; format: cell-based; conditions: for nH (Hill coefficient), coactivating response, α1 homomer: co-applied with 10 μM glycine, Hill fit, ± s.d.
# T1 construct: expressed in transfected cells; host or cells: HEK 293, transient electroporation, cDNA in pCIS2, GFP cDNA co-transfected as marker
# T1 sequence (P07727 29-457): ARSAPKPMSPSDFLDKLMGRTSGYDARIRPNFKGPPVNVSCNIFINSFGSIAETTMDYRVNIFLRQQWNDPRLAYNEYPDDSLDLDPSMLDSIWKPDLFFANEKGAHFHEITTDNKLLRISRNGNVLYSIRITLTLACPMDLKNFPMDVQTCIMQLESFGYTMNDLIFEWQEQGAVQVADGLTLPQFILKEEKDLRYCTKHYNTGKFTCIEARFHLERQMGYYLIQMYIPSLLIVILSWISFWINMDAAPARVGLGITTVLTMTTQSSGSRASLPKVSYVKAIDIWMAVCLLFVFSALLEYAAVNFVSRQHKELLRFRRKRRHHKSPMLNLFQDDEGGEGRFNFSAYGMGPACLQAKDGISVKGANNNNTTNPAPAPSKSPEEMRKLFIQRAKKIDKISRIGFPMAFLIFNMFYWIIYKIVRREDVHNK
# Experimental: (§1) Reduced sensitivity to 1000 μM picrotoxin in α1β heteromeric receptors was used as an assay of the efficacy of β subunit expression. Cells were cultured in Dulbecco's modified Eagle's medium (DMEM, Biochrom, Berlin, Germany), supplemented with 10% fetal calf serum (FCS, Biochrom, Berlin, Germany), 100 U ml^−1 penicillin and 100 μg ml^−1 streptomycin at 37° C. in a 5% CO2/air incubator. For transfection, cells were suspended in a buffer containing 50 mM K2HPO4 and 20 mM K-acetate, pH 7.35. […] To visualize transfected cells, they were co-transfected with cDNA of green fluorescent protein (GFP 10 μg ml^−1). For transfection, we used an electroporation device by EquiBio (Kent, UK). Transfected cells were replated on glass-coverslips and incubated 15-24 h before recording.
# (§2) The phenol derivatives under investigation were prepared as 1 M stock solution in ethanol, light-protected and stored in glass vessels at −20° C. Concentrations were calculated from the amount injected into the glass vials. Drug-containing vials were vigorously vortexed for 60 min.
# (§3) Patch electrodes contained [mM] KCl 140, MgCl2 2, EGTA 11, HEPES 10, glucose 10; the bath solution contained [mM] NaCl 162, KCl 5.3, NaHPO4 0.6, KH2PO4 0.22, HEPES 15, glucose 5.6.
# (§4) Standard whole-cell experiments (Hamill et al., (1981) Pflügers Arch., 391, 85-100.) were performed at −30 mV membrane potential. A tight electrical seal of several GΩ formed between the cell membrane and a patch-clamp electrode allows inward currents due to agonist-induced channel activation to resolve in the pA range. Electrical resistance of the pipettes was around 5 MΩ, corresponding to a total access resistance in the whole-cell configuration of about 10 MΩ. An ultra-fast liquid filament switch technique (Franke et al., (1987) Neurosci. Lett., 77, 199-204) was used for the application of the agonist in pulses of 2 s duration. The agonist and/or the drug under investigation were applied to the cells via a smooth liquid filament achieved with a single outflow (glass tubing 0.15 mm inner diameter) connected to a piezo crystal. The cells were placed at the interface between this filament and the continuously flowing background solution. When a voltage pulse was applied to the piezo, the tube was moved up and down onto or away from the cell under investigation. […] The contents of these reservoirs were mixed at a junction immediately before entering the superfusion chamber.
# (§5) A new cell was used for each drug and each protocol, at least three different experiments were performed for each setting. The amount of the diluent ethanol corresponding to the highest drug concentration used was 34 000 μM.
# (§6) For data acquisition and further analysis the inventors used the Axopatch 200B amplifier in combination with pClamp6 software (Axon Instruments, Union City, Calif., USA). Currents were filtered at 2 kHz. Fitting procedures were performed using a non-linear least-squares Marquardt-Levenberg algorithm. Details are provided in the appropriate figure legends or in the results section.
# (§7) Activated or co-activated currents were normalized to their own maximum response. […] In these cases, the maximum response was the response at the highest concentration of the test compound for which a reliable response could be recorded.
# (§8) Only results obtained with α1β receptors were enrolled in the statistical tests. […] Statistical analysis was performed in order to reveal differences in the maximum effect on the one hand and in the concentrations required to achieve half-maximum effect (EC50) on the other between halogenated and non-halogenated analogues, between compounds with one vs. two methyl groups, or between compounds with ortho- or meso-position of the methyl groups with respect to the phenolic hydroxyl group, respectively. Curve fitting and parameter estimation of the Hill curves were performed using the program “PROC NLMIXED” of SAS Release 8.02.
# [2] = molecular target: T2, α1β heteromeric glycine receptors (Rattus norvegicus, UniProt P07727); test: as above; format: cell-based; conditions: for nH (Hill coefficient), coactivating response, α1β heteromer: co-applied with 10 μM glycine, Hill fit, ± s.d.; for half-maximum concentration for glycine receptor co-activation, fold lower than for half-maximum blockade of sodium channels: selectivity versus reported sodium channel block
# T2 construct: expressed in transfected cells; host or cells: HEK 293, transient electroporation, α:β cDNA 1:10, pCIS2 vector
# Experimental: as §1, §2, §3, §4, §5, §6, §7, §8
# [3] = test system: voltage-operated sodium channels; conditions: cited from earlier work
# [4] = molecular target: T1, α1 homomeric glycine receptors; test: Direct activation of Cl- inward currents (agonist applied alone), whole-cell patch clamp, HEK 293; format: cell-based; conditions: for directly activated current as % of the maximum glycine (1000 μM) response: 3000 μM compound, without glycine, α1, n=3; for EC50: read-out: half-maximum concentration (EC50) for direct activation
# Experimental: as §1, §4, §5, §6, §7
# [5] = molecular target: T2, α1β heteromeric glycine receptors; test: as above; format: cell-based; conditions: for directly activated current as % of the maximum glycine (1000 μM) response: 3000 μM compound, without glycine, α1β, n=3; for EC50: read-out: half-maximum concentration (EC50) for direct activation
# Experimental: as §1, §4, §5, §6, §7
# [6] = molecular target: T3, glycine receptors (Rattus norvegicus, UniProt P07727); test: Inhibitory effects (open channel block) on co-application with saturating 1000 μM glycine; format: cell-based; conditions: co-applied with 1000 μM glycine, 3 experiments
# T3 construct: expressed in transfected cells; host or cells: HEK 293
# T3 sequence (P07727 29-457): T1 sequence (P07727 29-457)
# Experimental: as §4
# A new cell was used for each drug and each protocol, at least three different experiments were performed for each setting. […]
# [7] = molecular target: T4, α-subunits of glycine receptors from the rat coexpressed with human β subunits (Rattus norvegicus, UniProt P07727); test: Example 2: co-activation of the current response to 10 μM glycine, whole-cell mode, HEK293 cells; format: cell-based; conditions: for EC50 values in the presence of glycine (co-activation): Example 2; for concentrations at which the co-activating effect is overridden by inhibitory effects: co-applied with 10 μM glycine; for enhancement of glycine receptor function / EC50 for co-activation, fold lower concentrations than propofol: glycine receptors heterologously expressed in HEK293 cells
# T4 construct: expressed in transfected cells; host or cells: HEK293
# Experimental: (§9) Small cells were studied in the whole-cell mode using an ultra-fast application device.
# The results presented in FIG. 10 were corroborated by repeating the tests carried out to provide the data shown in FIG. 10 to provide the data shown in FIG. 11. […] Note from FIGS. 10 and 11 that the co-activating effect is observed in the concentration range between […]. The co-activating effect is overridden by inhibitory effects at higher concentrations (≧1000 μM). […] Small cells were studied in the whole-cell mode using an ultra-fast application device.
# [8] = molecular target: T4, α-subunits of glycine receptors from the rat coexpressed with human β subunits; test: Example 2: direct activation in the absence of glycine, whole-cell mode, HEK293 cells; format: cell-based; conditions: for EC50 values in the absence of the natural transmitter glycine: Example 2; for direct activating effect, fold higher concentrations than the co-activating effect: absence of glycine versus 10 μM glycine
# From the text: as §9
# The solid line is a Hill fit to the data with the indicated parameters. Note that the direct activating effect is observed at 1000-fold higher concentrations than the co-activating effect.
# [9] = molecular target: T1, α1 homomeric glycine receptors; test: Picrotoxin block of the 1000 μM glycine current (check of β subunit expression); format: cell-based; conditions: picrotoxin 1000 μM co-applied with 1000 μM glycine
# Experimental: as §1
# (§10) A total of 94 cells were included in the study.
# [10] = molecular target: T5, α1β glycine receptors (Rattus norvegicus, UniProt P07727); test: as above; format: cell-based; conditions: picrotoxin 1000 μM co-applied with 1000 μM glycine
# T5 construct: expressed in transfected cells; host or cells: HEK 293, transient electroporation, α:β cDNA 1:10, pCIS2 vector
# Experimental: as §1, §10
# [11] = read-out: EC50 (μM), normalised coactivating response, α1 homomer
# [12] = read-out: EC50 (μM), normalised coactivating response, α1β heteromer
# T2 sequence (P20781 23-496 partner, one chain of several): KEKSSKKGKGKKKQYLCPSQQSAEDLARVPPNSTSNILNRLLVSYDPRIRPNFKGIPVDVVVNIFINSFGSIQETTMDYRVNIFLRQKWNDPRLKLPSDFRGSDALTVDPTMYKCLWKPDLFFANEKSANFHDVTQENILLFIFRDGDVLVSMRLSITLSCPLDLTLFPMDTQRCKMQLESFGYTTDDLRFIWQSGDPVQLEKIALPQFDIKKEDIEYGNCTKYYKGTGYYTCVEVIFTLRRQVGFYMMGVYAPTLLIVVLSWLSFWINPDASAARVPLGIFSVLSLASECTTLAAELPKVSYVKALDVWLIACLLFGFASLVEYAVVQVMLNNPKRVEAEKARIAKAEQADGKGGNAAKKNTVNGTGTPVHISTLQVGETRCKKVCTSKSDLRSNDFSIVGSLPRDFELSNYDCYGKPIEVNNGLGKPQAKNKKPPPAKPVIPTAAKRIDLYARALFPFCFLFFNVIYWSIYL
# T4 sequence (P48167 23-497 partner, one chain of several): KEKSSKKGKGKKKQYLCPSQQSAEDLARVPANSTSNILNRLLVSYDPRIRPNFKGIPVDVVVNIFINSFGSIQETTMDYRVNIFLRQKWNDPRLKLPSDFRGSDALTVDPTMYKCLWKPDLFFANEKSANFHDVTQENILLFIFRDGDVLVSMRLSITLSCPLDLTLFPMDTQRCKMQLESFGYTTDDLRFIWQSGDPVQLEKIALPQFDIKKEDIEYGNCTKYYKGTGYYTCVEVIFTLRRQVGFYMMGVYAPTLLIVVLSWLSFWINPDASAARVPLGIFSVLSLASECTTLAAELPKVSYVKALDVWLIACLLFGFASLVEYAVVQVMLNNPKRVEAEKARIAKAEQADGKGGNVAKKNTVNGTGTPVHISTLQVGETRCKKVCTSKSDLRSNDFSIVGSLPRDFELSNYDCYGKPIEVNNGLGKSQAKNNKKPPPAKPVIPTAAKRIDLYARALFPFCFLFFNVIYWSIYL
# T5 sequence (P20781 23-496 partner, one chain of several): as the sequence (P20781 23-496 partner, one chain of several) above
molecule,measurement,setting,value
Cc1ccccc1O [2 methylphenol],EC50,[1],70 ± 29 µM
same,"nH (Hill coefficient), coactivating response, α1 homomer",[1],0.7 ± 0.1
same,EC50,[2],448 ± 89 µM
same,"nH (Hill coefficient), coactivating response, α1β heteromer",[2],1.2 ± 0.2
"Cc1cccc(C)c1O [2,6 dimethylphenol]",IC50,"[3]; membrane potential close to the physiological resting potential, read-out: half-maximum blockade of voltage-operated neuronal sodium channels",187 µM
same,"nH (Hill coefficient), coactivating response, α1 homomer",[1],1.5 ± 0.4
same,EC50,[1]; [11],226 ± 104 µM
same,"nH (Hill coefficient), coactivating response, α1β heteromer",[2],1.2 ± 0.1
same,EC50,[2]; [12],370 µM and 373 µM
same,directly activated current as % of the maximum glycine (1000 μM) response,[4],32±6%
same,EC50,[4],1410 ± 101 µM
same,directly activated current as % of the maximum glycine (1000 μM) response,[5],33±10%
same,EC50,[5],1550 ± 164 µM
Cc1cc(O)ccc1Cl [3 methyl-4-chlorophenol],IC50,"[3]; resting state, read-out: half-maximum block of sodium channels",400 µM
same,EC50,[1],8 ± 5 µM
same,"nH (Hill coefficient), coactivating response, α1 homomer",[1],1.1 ± 0.4
same,EC50,[2],4 µM
same,"nH (Hill coefficient), coactivating response, α1β heteromer",[2],1.2 ± 0.3
same,"half-maximum concentration for glycine receptor co-activation, fold lower than for half-maximum blockade of sodium channels",[2],~100 fold
same,concentration producing a reduction in peak current amplitude with response rebound,[6],> 600 µM
Cc1cccc(O)c1 [3 methylphenol],"nH (Hill coefficient), coactivating response, α1 homomer",[1],0.9 ± 0.3
same,EC50,[1]; [11],59 ± 19 µM
same,"nH (Hill coefficient), coactivating response, α1β heteromer",[2],1.0 ± 0.1
same,EC50,[2]; [12],222 ± 45 µM
"Cc1cc(O)cc(C)c1Cl [3,5 dimethyl-4-chlorophenol]","nH (Hill coefficient), coactivating response, α1 homomer",[1],1.4 ± 2.9
same,EC50,[1]; [11],13 ± 4 µM
same,"nH (Hill coefficient), coactivating response, α1β heteromer",[2],1.3 ± 0.1
same,EC50,[2]; [12],11 ± 2 µM
same,"half-maximum concentration for glycine receptor co-activation, fold lower than for half-maximum blockade of sodium channels",[2],about 10 fold
same,concentration producing a reduction in peak current amplitude with response rebound,[6],> 300 µM
"Cc1cc(C)cc(O)c1 [3,5 dimethylphenol]","nH (Hill coefficient), coactivating response, α1 homomer",[1],1.7 ± 0.9
same,EC50,[1]; [11],254 ± 139 µM
same,"nH (Hill coefficient), coactivating response, α1β heteromer",[2],1.3 ± 0.2
same,EC50,[2]; [12],308 ± 46 µM
same,directly activated current as % of the maximum glycine (1000 μM) response,[4],30±12%
same,EC50,[4],1470 ± 208 µM
same,directly activated current as % of the maximum glycine (1000 μM) response,[5],38±5%
same,EC50,[5],1470 ± 83 µM
"CC(C)c1cc(Br)cc(C(C)C)c1O [4-bromopropofol, 4-bromo-2,6 di-isopropylphenol]",EC50 values in the presence of glycine (co-activation),[7],single-digit nanomolar range
same,concentrations at which the co-activating effect is overridden by inhibitory effects,[7],> 1000 µM
same,"enhancement of glycine receptor function / EC50 for co-activation, fold lower concentrations than propofol",[7],1000 fold
same,EC50 values in the absence of the natural transmitter glycine,[8],single-digit micromolar range
same,"direct activating effect, fold higher concentrations than the co-activating effect",[8],1000 fold
"CC(C)c1cc(I)cc(C(C)C)c1O [4-iodopropofol, 4-iodo-2,6 di-isopropylphenol]",EC50 values in the presence of glycine (co-activation),[7],single-digit nanomolar range
same,concentrations at which the co-activating effect is overridden by inhibitory effects,[7],> 1000 µM
same,"enhancement of glycine receptor function / EC50 for co-activation, fold lower concentrations than propofol",[7],1000 fold
same,EC50 values in the absence of the natural transmitter glycine,[8],single-digit micromolar range
same,"direct activating effect, fold higher concentrations than the co-activating effect",[8],1000 fold
NCC(=O)O [glycine],"current response evoked by 10 μM glycine, % of the response to 1000 μM glycine","[4]; α1 receptors, n=24",46±5%
same,"current response evoked by 10 μM glycine, % of the response to 1000 μM glycine","[5]; α1β receptors, n=34",21±7%
picrotoxin,block of receptors by picrotoxin,[9],55±0.05%
same,block of receptors by picrotoxin,[10],19±0.05%
